Test results as given in patent US7834044B2, “Substituted-2-imidazoles” (Hoffman-LaRoche Inc., priority 2006, dated 2010).
Where two headings read alike, the source gives them in different places.

Biological target: T1, TAAR1 (Mus musculus, UniProt Q923Y8)
T1 construct: expressed in transfected cells; host or cells: HEK293 (ATCC # CRL-1573), stably transfected with pIRESneo2 expression plasmid; membranes prepared
Assay: TAAR1 radioligand binding assay on membranes of stably transfected HEK293 cells
Experimental: The ability of the compounds of the present invention to bind to TAAR 1 was investigated in accordance with the test given hereinafter.
The Expand High Fidelity PCR System (Roche Diagnostics) was used with 1.5 mM Mg^2+ and purified PCR products were cloned into pCR2.1-TOPO cloning vector (Invitrogen) following the instructions of the manufacturer. PCR products were subcloned into the pIRESneo2 vector (BD Clontech, Palo Alto, Calif.), and expression vectors were sequence verified before introduction in cell lines.
For the generation of stably transfected cell lines HEK293 cells were transfected with the pIRESneo2 expression plasmids containing the TAAR coding sequences (described above) with Lipofectamine 2000 (Invitrogen) according to the instructions of the manufacturer, and 24 hours post transfection the culture medium was supplemented with 1 mg/ml G418 (Sigma, Buchs, Switzerland). After a culture period of about 10 days, clones were isolated, expanded and tested for responsiveness to trace amines (all compounds purchased from Sigma) with the cAMP Biotrak Enzyme immunoassay (EIA) System (Amersham) following the non-acetylation EIA procedure provided by the manufacturer.
Cells at confluence were rinsed with ice-cold phosphate buffered saline without Ca^2+ and Mg^2+ containing 10 mM EDTA and pelleted by centrifugation at 1000 rpm for 5 min at 4° C. The pellet was then washed twice with ice-cold phosphate buffered saline and cell pellet was frozen immediately by immersion in liquid nitrogen and stored until use at −80° C. The cell pellet was then suspended in 20 ml HEPES-NaOH (20 mM), pH 7.4 containing 10 mM EDTA, and homogenized with a Polytron (PT 3000, Kinematica) at 10,000 rpm for 10 seconds. The homogenate was centrifuged at 48,000×g for 30 minutes at 4° C. and the pellet resuspended in 20 ml HEPES-NaOH (20 mM), pH 7.4 containing 0.1 mM EDTA (buffer A), and homogenized with a Polytron at 10,000 rpm for 10 seconds. The homogenate was then centrifuged at 48,000×g for 30 minutes at 4° C. and the pellet resuspended in 20 ml buffer A, and homogenized with a Polytron at 10,000 rpm for 10 seconds. Protein concentration was determined by the method of Pierce (Rockford, Ill.). The homogenate was then centrifuged at 48,000×g for 10 minutes at 4° C., resuspended in HEPES-NaOH (20 mM), pH 7.0 including MgCl2 (10 mM) and CaCl2 ([…]) (buffer B) at 200 μg protein per ml and homogenized with a Polytron at 10,000 rpm for 10 seconds.
Binding assay was performed at 4° C. in a final volume of 1 ml, and with an incubation time of 30 minutes. […] Non-specific binding was defined as the amount of [^3H]-rac-2-(1,2,3,4-tetrahydro-1-naphthyl)-2-imidazoline bound in the presence of the appropriate unlabelled ligand (10 μM). Competing ligands were tested in a wide range of concentrations (10 pM-30 μM). […] Each experiment was performed in duplicate. All incubations were terminated by rapid filtration through UniFilter-96 plates (Packard Instrument Company) and glass filter GF/C, pre-soaked for at least 2 h in polyethylenimine 0.3%, and using a Filtermate 96 Cell Harvester (Packard Instrument Company). The tubes and filters were then washed 3 times with 1 ml aliquots of cold buffer B. Filters were not dried and soaked in Ultima gold (45 μl/well, Packard Instrument Company) and bound radioactivity was counted by a TopCount Microplate Scintillation Counter (Packard Instrument Company).

[1] = mouse TAAR1, radioligand [3H]-rac-2-(1,2,3,4-tetrahydro-1-naphthyl)-2-imidazoline at 60 nM, 4° C., 30 minutes, read-out: Ki (μM) mouse

T1 sequence (Q923Y8 whole entry): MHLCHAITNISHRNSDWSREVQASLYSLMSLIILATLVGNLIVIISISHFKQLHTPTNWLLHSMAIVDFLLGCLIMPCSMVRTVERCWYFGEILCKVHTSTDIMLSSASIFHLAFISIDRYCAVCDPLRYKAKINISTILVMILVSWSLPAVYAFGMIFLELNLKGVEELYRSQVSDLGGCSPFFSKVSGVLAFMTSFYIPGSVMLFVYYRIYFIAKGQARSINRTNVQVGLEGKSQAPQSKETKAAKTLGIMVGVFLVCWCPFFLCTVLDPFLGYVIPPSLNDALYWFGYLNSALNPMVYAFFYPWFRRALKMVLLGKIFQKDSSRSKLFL

Row | SMILES | Ki | further results
1 | c1ccc2c(c1)CCN2Cc1ncc[nH]1 [Example 1, 1-(1H-Imidazol-2-ylmethyl)-2,3-dihydro-1H-indole] | 0.0289 µM | –
2 | Clc1cccc2c1N(Cc1ncc[nH]1)CC2 [Example 24, 7-Chloro-1-(1H-imidazol-2-ylmethyl)-2,3-dihydro-1H-indole] | – | Ki [1]: 0.0557 µM
3 | C[C@@H]1c2ccccc2N(Cc2ncc[nH]2)[C@@H]1C (racemic) [Example 14, (2RS,3RS)-1-(1H-Imidazol-2-ylmethyl)-2,3-dimethyl-2,3-dihydro-1H-indole] | 0.196 µM | –
4 | COc1cccc2c1CCN2Cc1ncc[nH]1 [Example 23, 1-(1H-Imidazol-2-ylmethyl)-4-methoxy-2,3-dihydro-1H-indole] | 0.115 µM | –
5 | Brc1ccc2c(c1)CCCN2Cc1ncc[nH]1 [Example 25, 6-Bromo-1-(H-imidazol-2-ylmethyl)-1,2,3,4-tetrahydro-quinoline] | – | Ki [1]: 0.0951 µM
6 | Clc1ccc2c(c1)N(Cc1ncc[nH]1)CC2 [Example 16, 6-Chloro-1-(1H-imidazol-2-ylmethyl)-2,3-dihydro-1H-indole] | 0.035 µM | –
7 | Cc1cccc2c1CCN2Cc1ncc[nH]1 [Example 33, 1-(1H-Imidazol-2-ylmethyl)-4-methyl-2,3-dihydro-1H-indole] | 0.125 µM | –
8 | CCc1cccc2c1N(Cc1ncc[nH]1)CC2 [Example 15, 7-Ethyl-1-(1H-imidazol-2-ylmethyl)-2,3-dihydro-1H-indole] | 0.0435 µM | –
9 | c1ccc(Oc2cccc3c2CCCN3Cc2ncc[nH]2)cc1 [Example 42, 1-(1H-Imidazol-2-ylmethyl)-5-phenoxy-1,2,3,4-tetrahydro-quinoline] | 0.0046 µM | –
10 | Clc1cccc2c1CCN2Cc1ncc[nH]1 [Example 17, 4-Chloro-1-(1H-imidazol-2-ylmethyl)-2,3-dihydro-1H-indole] | 0.0362 µM | –
11 | Brc1ccc2c(c1)CCN2Cc1ncc[nH]1 [Example 4, 5-Bromo-1-(1H-imidazol-2-ylmethyl)-2,3-dihydro-1H-indole] | 0.055 µM | –
12 | c1ccc2c(c1)CCCC2C1=NCCN1 (racemic) [[^3H]-rac-2-(1,2,3,4-tetrahydro-1-naphthyl)-2-imidazoline, reference compound] | – | Kd (radioligand binding to TAAR1 membranes, species not stated, read-out: calculated Kd value of the radioligand): 60 nM
13 | COc1cccc2c1N(Cc1ncc[nH]1)CC2 [Example 20, 1-(1H-Imidazol-2-ylmethyl)-7-methoxy-2,3-dihydro-1H-indole] | 0.118 µM | –
14 | Cc1ccc2c(c1)N(Cc1ncc[nH]1)CC2 [Example 26, 1-(1H-Imidazol-2-ylmethyl)-6-methyl-2,3-dihydro-1H-indole] | – | Ki [1]: 0.129 µM
15 | c1ccc(COc2cccc3c2CCCN3Cc2ncc[nH]2)cc1 [Example 38, 5-Benzyloxy-1-(1H-imidazol-2-ylmethyl)-1,2,3,4-tetrahydro-quinoline] | – | Ki [1]: 0.0513 µM
16 | Cc1cccc2c1N(Cc1ncc[nH]1)CC2 [Example 32, 1-(1H-Imidazol-2-ylmethyl)-7-methyl-2,3-dihydro-1H-indole] | 0.173 µM | –
